Measured values: patent publication US20040033517A1, “Compositions and methods relating to endothelial cell signaling using the protease activated receptor (PAR1)” (priority 2002, published 2004)
Like-named read-outs stand apart in the source and are kept apart here.

What was measured:
[1] = system: human umbilical vein endothelial cells HUVEC-C; format: cell-based; conditions: endothelial cells
Source text: Microarray Analysis. […] Total RNA was isolated followed by reverse transcription. Purified double stranded cDNA was in vitro transcribed in the presence of biotinylated dUTP and dCTP, fragmented cRNA was hybridized to the HG-U95Av2 array (Affymetrix, Santa Clara, Calif.), followed by staining with streptavidin-phycoerythrin. Arrays were scanned and analyzed using GeneChip3.1 software. […] An average fold-induction for the three independent experiments was obtained by calculating the means of the logarithm of the individual fold-increases for each agonist.

[2] = system: thrombin-mediated PAR1 signaling; conditions: 100 nM hirudin; M. Riewald et al., Blood 97: 3109, 2001; cited from earlier work

## Thrombin
[1]
  Induction (log 2), A1743606 wg51108.x1 Homo sapiens cDNA: −0.05 log 2
  Induction (log 2), AB002450 Homo sapiens mRNA from chromosome 5q21-22, clone-A3-A: 0.45 log 2
  Induction (log 2), AB003184 Homo sapiens mRNA for ISLR: 0.05 log 2
  Induction (log 2), AB012229 fructose-6-phosphate,2-kinase/fructose-2,6-bisphosphatase: 0.25 log 2
  Induction (log 2), AF000421 TTF-1 interacting peptide 12 mRNA: 0.20 log 2
  Induction (log 2), AF015451 Homo sapiens Usurpin-beta mRNA: 0.45 log 2
  Induction (log 2), AF022375 Homo sapiens vascular endothelial growth factor mRNA: 0.75 log 2
  Induction (log 2), AF024710 Homo sapiens vascular endothelial growth factor (VEGF) mRNA: 0.90 log 2
  Induction (log 2), AF042083 BH3 interacting domain death agonist (BID) mRNA: 0.20 log 2
  Induction (log 2), AF094481 trinucleotide repeat DNA binding protein p20-CGGBP (CGGBP) gene: 0.50 log 2
  Induction (log 2), AF095154 Homo sapiens C1q-related factor mRNA: 0.10 log 2
  Induction (log 2), AF098462 Homo sapiens stanniocalcin-related protein mRNA: 1.00 log 2
  Induction (log 2), AJ000480 Homo sapiens mRNA for C8FW phosphoprotein: 1.15 log 2
  Induction (log 2), Cluster Incl U88629 Human RNA polymerase II elongation factor ELL2: 0.70 log 2
  Induction (log 2), Cluster Incl X66360 H.sapiens mRNA PCTAIRE-2 for serine/threonine protein kinase: 0.35 log 2
  Induction (log 2), D29990 Human mRNA for cationic amino acid transporter 2: 0.75 log 2
  Induction (log 2), D38449 Human mRNA for G protein-coupled receptor: 0.10 log 2
  Induction (log 2), D49817 6-phosphofructo-2-kinase/fructose-2, 6-bisphosphatase mRNA: 0.20 log 2
  Induction (log 2), D78579 Homo sapiens mRNA for neuron derived orphan receptor: 1.55 log 2
  Induction (log 2), J04102 Human erythroblastosis virus oncogene homolog 2 (ets-2) mRNA: 0.50 log 2
  Induction (log 2), L07261 Human alpha adducin mRNA: 0.10 log 2
  Induction (log 2), L19871 Human activating transcription factor 3 (ATF3) mRNA: 1.10 log 2
  Induction (log 2), L38487 Human estrogen receptor-related protein (hERRa1) mRNA: 0.10 log 2
  Induction (log 2), M14648 Human cell adhesion protein (vitronectin) receptor alpha subunit mRNA: 0.60 log 2
  Induction (log 2), M19481 Human follistatin gene: 1.30 log 2
  Induction (log 2), M22489 Human bone morphogenetic protein 2A (BMP-2A) mRNA: 0.90 log 2
  Induction (log 2), M28130 Human interleukin 8 (IL8) gene: 0.40 log 2
  Induction (log 2), M29039 Human transactivator (jun-B) gene: 0.60 log 2
  Induction (log 2), M36820 Human cytokine (GRO-beta) mRNA: 0.35 log 2
  Induction (log 2), M59964 Human stem cell factor mRNA: 0.75 log 2
  Induction (log 2), M64349 Human cyclin D (cyclin D1) mRNA: 0.00 log 2
  Induction (log 2), M96995 epidermal growth factor receptor-binding protein GRB2 (EGFRBP-GRB2) mRNA: 0.05 log 2
  Induction (log 2), Neurofibromatosis 2 Tumor Suppressor: 0.55 log 2
  Induction (log 2), Tyrosine Phosphatase, Epsilon: 1.40 log 2
  Induction (log 2), U08015 HumanNF-ATc mRNA: 0.55 log 2
  Induction (log 2), U12471 Human thrombospondin-1 gene: 0.70 log 2
  Induction (log 2), U12767 Human mitogen induced nuclear orphan receptor (MINOR) mRNA: 1.15 log 2
  Induction (log 2), U15932 Human dual-specificity protein phosphatase mRNA: 0.60 log 2
  Induction (log 2), U18671 Human Stat2 gene: 0.05 log 2
  Induction (log 2), U20816 Human nuclear factor kappa-B2 (NF-KB2) gene: 0.70 log 2
  Induction (log 2), U23070 Human putative transmembrane protein (nma) mRNA: 1.10 log 2
  Induction (log 2), U25997 Homo sapiens stanniocalcin precursor (STC) mRNA: 1.10 log 2
  Induction (log 2), U33838 Human NF-kappa-B p65delta3 mRNA: 0.10 log 2
  Induction (log 2), U42391 Human myosin-IXb mRNA: −0.15 log 2
  Induction (log 2), U65093 Human msg1-related gene 1 (mrg1) mRNA: 0.95 log 2
  Induction (log 2), U72066 Homo sapiens CtBP interacting protein CtIP (CtIP) mRNA: 0.70 log 2
  Induction (log 2), U76368 Human cationic amino acid transporter-2A (ATRC2) mRNA: 0.75 log 2
  Induction (log 2), U83981 Homo sapiens apoptosis associated protein (GADD34) mRNA: 0.50 log 2
  Induction (log 2), U88629/FEATURE Human RNA polymerase II elongation factor ELL2: 0.75 log 2
  Induction (log 2), W28170 43a12 Homo sapiens cDNA: 0.15 log 2
  Induction (log 2), W28257 44c1 Homo sapiens cDNA: 0.20 log 2
  Induction (log 2), X02469 Human mRNA for p53 cellular tumor antigen: −0.10 log 2
  Induction (log 2), X14787 Human mRNA for thrombospondin: 0.40 log 2
  Induction (log 2), X14798 Human DNA for c-ets-1 proto-oncogene: 0.75 log 2
  Induction (log 2), X16706 Human fra-2 mRNA: 0.50 log 2
  Induction (log 2), X51345 Human jun-B mRNA for JUN-B protein: 0.75 log 2
  Induction (log 2), X51435 Human PRDII-BF1 gene for a DNA-binding protein: 0.85 log 2
  Induction (log 2), X66360/FEATURE H.sapiens mRNA PCTAIRE-2 for serine/threonine protein kinase: 0.65 log 2
  Induction (log 2), X68277 H.sapiens CL 100 mRNA for protein tyrosine phosphatase: 1.75 log 2
  Induction (log 2), X69086 H.sapiens mRNA for utrophin: 0.60 log 2
  Induction (log 2), X69699 H.sapiens Pax8 mRNA: 0.10 log 2
  Induction (log 2), X98248 H.sapiens mRNA for sortilin: −0.15 log 2
  Induction (log 2), Z12173 H.sapiens GNS mRNA encoding glucosamine-6-sulphatase: 0.60 log 2
  Induction (log 2), Z12830 H.sapiens mRNA for SSR alpha subunit: 0.40 log 2
  Induction (log 2), Z23115 H.sapiens bc1-xL mRNA: 0.10 log 2
  Induction (log 2), Z29083 H.sapiens 5T4 gene for 5T4 Oncofetal antigen: 0.10 log 2
  Induction (log 2), Z48579 H.sapiens mRNA for disintegrin-metalloprotease (partial): 0.20 log 2
[1]; first entry (r8)
  Induction (log 2), D13540 Homo sapiens SH-PTP3 mRNA for protein-tyrosine phosphatase: 0.65 log 2
[1]; first entry (r15)
  Induction (log 2), W28616 49b9 Homo sapiens cDNA: 0.30 log 2
[1]; second entry (r30)
  Induction (log 2), W28616 49b9 Homo sapiens cDNA: −0.05 log 2
[1]; second entry (r54)
  Induction (log 2), D13540 Homo sapiens SH-PTP3 mRNA for protein-tyrosine phosphatase: 0.40 log 2

## hirudin
[2]
  Block of cell surface thrombin-mediated PAR1 signaling: block all cell surface thrombin-mediated PAR1 signaling
